Reference: PubChem BioAssay (NCI)
Values joined by “and” are separate entries in the source; they are usually repeats but may differ in a detail not shown here. Identical values can stand only once.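 Results reflect a 48-hour exposure of cells in 96-well plates to compound at five concentrations. At the GI50, growth is halved. TGI is the concentration that stops growth completely.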

Assays:
Assay in all cases: DTP human tumour cell line panel, 48 h
KM12 colon = tested on: KM12 colon
UO-31 renal = tested on: UO-31 renal
786-0 renal = tested on: 786-0 renal
HCC-2998 colon = tested on: HCC-2998 colon
NCI-H460 lung = tested on: NCI-H460 lung
SNB-75 CNS = tested on: SNB-75 CNS
A498 renal = tested on: A498 renal
SF-295 CNS = tested on: SF-295 CNS
HCT-116 colon = tested on: HCT-116 colon
RPMI-8226 leukemia = tested on: RPMI-8226 leukemia
HOP-92 NSCLC = tested on: HOP-92 NSCLC
MCF7 breast = tested on: MCF7 breast
HS 578T breast = tested on: HS 578T breast
NCI-H226 lung = tested on: NCI-H226 lung
MOLT-4 leukemia = tested on: MOLT-4 leukemia
COLO 205 colon = tested on: COLO 205 colon
K-562 leukemia = tested on: K-562 leukemia
IGROV1 ovarian = tested on: IGROV1 ovarian
M14 melanoma = tested on: M14 melanoma
DU-145 prostate = tested on: DU-145 prostate
HL-60(TB) leukemia = tested on: HL-60(TB) leukemia
LOX IMVI melanoma = tested on: LOX IMVI melanoma
SK-MEL-2 melanoma = tested on: SK-MEL-2 melanoma
SK-MEL-28 melanoma = tested on: SK-MEL-28 melanoma
T-47D breast = tested on: T-47D breast
SK-MEL-5 melanoma = tested on: SK-MEL-5 melanoma
NCI-H23 lung = tested on: NCI-H23 lung
SF-268 CNS = tested on: SF-268 CNS
SW-620 colon = tested on: SW-620 colon
A549 NSCLC = tested on: A549 NSCLC
CAKI-1 renal = tested on: CAKI-1 renal
EKVX NSCLC = tested on: EKVX NSCLC
OVCAR-5 ovarian = tested on: OVCAR-5 ovarian
NCI-H522 lung = tested on: NCI-H522 lung
BT-549 breast = tested on: BT-549 breast
HOP-62 NSCLC = tested on: HOP-62 NSCLC
PC-3 prostate = tested on: PC-3 prostate
CCRF-CEM leukemia = tested on: CCRF-CEM leukemia
MALME-3M melanoma = tested on: MALME-3M melanoma
U251 CNS = tested on: U251 CNS
UACC-62 melanoma = tested on: UACC-62 melanoma
HT29 colon = tested on: HT29 colon
TK-10 renal = tested on: TK-10 renal
MDA-MB-231 breast = tested on: MDA-MB-231 breast
OVCAR-3 ovarian = tested on: OVCAR-3 ovarian
OVCAR-4 ovarian = tested on: OVCAR-4 ovarian
SF-539 CNS = tested on: SF-539 CNS
SR leukemia = tested on: SR leukemia
OVCAR-8 ovarian = tested on: OVCAR-8 ovarian
ACHN renal = tested on: ACHN renal
MDA-MB-435 = tested on: MDA-MB-435
HCT-15 colon = tested on: HCT-15 colon
RXF 393 renal = tested on: RXF 393 renal
SK-OV-3 ovarian = tested on: SK-OV-3 ovarian
UACC-257 melanoma = tested on: UACC-257 melanoma
SNB-19 CNS = tested on: SNB-19 CNS
NCI/ADR-RES ovarian = tested on: NCI/ADR-RES ovarian
SN12C renal = tested on: SN12C renal

## C[C@]12CC[C@H](OC3OC(O)C(O)C(O)C3O)C=C1CCC1C2CC[C@]2(C)[C@@H](c3ccc(=O)oc3)CC[C@]12O (stereo not given in full)
KM12 colon
  GI50: 4.87 nM and 5 nM
  TGI: 25.8 nM and 26.6 nM
UO-31 renal
  GI50: 4.64 nM and 5 nM
  TGI: 16.8 nM and 8.11 nM
786-0 renal
  GI50: 2.59 nM and 5 nM
  TGI: 7 nM and 5.73 nM
HCC-2998 colon
  GI50: 4.67 nM and 5 nM
  TGI: 25.2 nM and 16.5 nM
NCI-H460 lung
  GI50: 2.42 nM and 5 nM
  TGI: 6.33 nM and 5.12 nM
SNB-75 CNS
  GI50: 3.21 nM and 5 nM
  TGI: 15.7 nM and 6.16 nM
A498 renal
  GI50: 3.45 nM and 5 nM
  TGI: 48.3 nM and 23.7 nM
SF-295 CNS
  GI50: 3.16 nM and 5 nM
  TGI: 80.9 nM and 13 nM
HCT-116 colon
  GI50: 3.62 nM and 5 nM
  TGI: 11.9 nM and 6.71 nM
RPMI-8226 leukemia
  GI50: 4.39 nM
  TGI: 74.8 nM
HOP-92 NSCLC
  GI50: 3.94 nM and 7.24 nM
  TGI: 34.2 nM and 29.2 nM
MCF7 breast
  GI50: 3.42 nM and 5 nM
  TGI: 65.4 nM and 14.4 nM
HS 578T breast
  GI50: 2.24 nM
  TGI: 50.6 nM
NCI-H226 lung
  GI50: 2.62 nM and 5.27 nM
  TGI: 8.62 nM and 11.3 nM
MOLT-4 leukemia
  GI50: 2.34 nM
  TGI: 5.3 nM
COLO 205 colon
  GI50: 15.3 nM and 7.93 nM
  TGI: 35.8 nM and 17.1 nM
K-562 leukemia
  GI50: 4.06 nM
  TGI: 18.1 nM
IGROV1 ovarian
  GI50: 4.64 nM and 5 nM
M14 melanoma
  GI50: 14.8 nM and 9.18 nM
  TGI: 29.9 nM and 19.9 nM
DU-145 prostate
  GI50: 2.77 nM
  TGI: 6.98 nM
HL-60(TB) leukemia
  GI50: 2.27 nM
  TGI: 5.12 nM
LOX IMVI melanoma
  GI50: 3.33 nM and 5 nM
  TGI: 12 nM and 7.7 nM
SK-MEL-2 melanoma
  GI50: 3.53 nM and 7.62 nM
  TGI: 10.3 nM and 17.7 nM
SK-MEL-28 melanoma
  GI50: 5.85 nM and 6.06 nM
  TGI: 20 nM and 13.8 nM
T-47D breast
  GI50: 4.04 nM and 5 nM
  TGI: 19.8 nM and 16.6 nM
SK-MEL-5 melanoma
  GI50: 1.96 nM and 5 nM
  TGI: 4.28 nM and 6.32 nM
NCI-H23 lung
  GI50: 2.93 nM
  TGI: 11.4 nM
SF-268 CNS
  GI50: 3.73 nM and 5 nM
  TGI: 12.8 nM and 6.07 nM
SW-620 colon
  GI50: 4.45 nM and 5 nM
  TGI: 25.4 nM and 15.4 nM
A549 NSCLC
  GI50: 1.78 nM
  TGI: 3.58 nM
CAKI-1 renal
  GI50: 3.57 nM and 5 nM
  TGI: 24.8 nM and 17.3 nM
EKVX NSCLC
  GI50: 2.86 nM and 5 nM
  TGI: 9.07 nM and 5.58 nM
OVCAR-5 ovarian
  GI50: 8.01 nM and 5 nM
  TGI: 25.2 nM and 11.9 nM
NCI-H522 lung
  GI50: 2.86 nM
  TGI: 11.4 nM
BT-549 breast
  GI50: 3.59 nM and 5 nM
  TGI: 11.8 nM and 6.59 nM
HOP-62 NSCLC
  GI50: 1.78 nM
  TGI: 3.28 nM
PC-3 prostate
  GI50: 3.84 nM
  TGI: 22.1 nM
CCRF-CEM leukemia
  GI50: 5 nM
  TGI: 50000 nM
MALME-3M melanoma
  GI50: 3.28 nM and 5 nM
  TGI: 9.89 nM and 11.8 nM
U251 CNS
  GI50: 3.82 nM and 5 nM
  TGI: 14.1 nM and 9.03 nM
UACC-62 melanoma
  GI50: 6.26 nM and 7.83 nM
  TGI: 21.4 nM and 17.6 nM
HT29 colon
  GI50: 4.52 nM and 5 nM
  TGI: 17.6 nM and 9.16 nM
TK-10 renal
  GI50: 5.08 nM
  TGI: 42.2 nM
MDA-MB-231 breast
  GI50: 19.4 nM and 15.6 nM
  TGI: 100 nM and 60.2 nM
OVCAR-3 ovarian
  GI50: 3.8 nM and 5 nM
  TGI: 12.1 nM and 6.38 nM
OVCAR-4 ovarian
  GI50: 2.98 nM
  TGI: 16.7 nM
SF-539 CNS
  GI50: 2.62 nM and 5 nM
  TGI: 6.21 nM and 5.68 nM
SR leukemia
  GI50: 2.21 nM
  TGI: 6.19 nM
OVCAR-8 ovarian
  GI50: 3.67 nM and 5 nM
  TGI: 16.8 nM and 7.2 nM
ACHN renal
  GI50: 3.49 nM and 5 nM
  TGI: 11.9 nM and 5.78 nM
MDA-MB-435
  GI50: 4.03 nM and 5.78 nM
  TGI: 21.2 nM and 19.2 nM
HCT-15 colon
  GI50: 4.65 nM and 5 nM
  TGI: 21.8 nM and 15.5 nM
RXF 393 renal
  GI50: 1.79 nM
  TGI: 3.9 nM
SK-OV-3 ovarian
  GI50: 3.65 nM and 5 nM
  TGI: 12 nM and 6.59 nM
UACC-257 melanoma
  GI50: 10.6 nM and 5.17 nM
  TGI: 24.2 nM and 11.5 nM
SNB-19 CNS
  GI50: 6.88 nM and 5 nM
  TGI: 50.6 nM and 28.7 nM
NCI/ADR-RES ovarian
  GI50: 2.64 nM and 5 nM
  TGI: 7.55 nM and 6.47 nM
SN12C renal
  GI50: 3.04 nM and 5 nM
  TGI: 17 nM and 9.65 nM
